Experimental data as given in the NIST ThermoML archive (doi:10.1021/je049918m).
Where “and” joins values, the source holds several entries; their conditions need not be identical. Identical values can stand only once.

Conditions: Liquid, Falling or rolling sphere viscometry

O [water]
Conditions | viscosity
255.65 K, 177500 kPa | 2.945 mPa·s
255.65 K, 190300 kPa | 2.955 mPa·s
255.65 K, 196700 kPa | 2.959 mPa·s
255.65 K, 201800 kPa | 2.964 mPa·s
255.65 K, 231800 kPa | 3.003 mPa·s
255.65 K, 257800 kPa | 3.056 mPa·s
255.65 K, 292300 kPa | 3.135 mPa·s
255.65 K, 321100 kPa | 3.217 mPa·s
258.15 K, 159300 kPa | 2.678 mPa·s
258.15 K, 188400 kPa | 2.69 mPa·s
258.15 K, 205200 kPa | 2.708 mPa·s
258.15 K, 209200 kPa | 2.71 mPa·s
258.15 K, 239800 kPa | 2.754 mPa·s
258.15 K, 282600 kPa | 2.834 mPa·s
258.15 K, 309000 kPa | 2.898 mPa·s
258.15 K, 323500 kPa | 2.934 mPa·s
258.15 K, 333200 kPa | 2.957 mPa·s
258.15 K, 354100 kPa | 3.019 mPa·s
258.15 K, 361000 kPa | 3.033 mPa·s
263.15 K, 112000 kPa | 2.258 mPa·s
263.15 K, 112100 kPa | 2.258 mPa·s
263.15 K, 128600 kPa | 2.247 mPa·s
263.15 K, 150800 kPa | 2.244 mPa·s
263.15 K, 180700 kPa | 2.256 mPa·s
263.15 K, 209900 kPa | 2.281 mPa·s
263.15 K, 240100 kPa | 2.315 mPa·s
263.15 K, 270500 kPa | 2.357 mPa·s
263.15 K, 302000 kPa | 2.415 mPa·s
263.15 K, 335400 kPa | 2.481 mPa·s
263.15 K, 386400 kPa | 2.605 mPa·s
268.15 K, 61100 kPa | 1.969 mPa·s
268.15 K, 80800 kPa | 1.942 mPa·s
268.15 K, 98000 kPa | 1.927 mPa·s
268.15 K, 100200 kPa | 1.926 mPa·s
268.15 K, 124200 kPa | 1.914 mPa·s
268.15 K, 151100 kPa | 1.913 mPa·s
268.15 K, 177500 kPa | 1.924 mPa·s
268.15 K, 213300 kPa | 1.949 mPa·s
268.15 K, 245400 kPa | 1.982 mPa·s
268.15 K, 295300 kPa | 2.047 mPa·s
268.15 K, 350800 kPa | 2.138 mPa·s
268.15 K, 376700 kPa | 2.19 mPa·s
268.15 K, 387900 kPa | 2.212 mPa·s
273.15 K, 100 kPa | 1.799 mPa·s and 1.802 mPa·s
273.15 K, 30700 kPa | 1.722 mPa·s
273.15 K, 60400 kPa | 1.678 mPa·s
273.15 K, 90700 kPa | 1.653 mPa·s
273.15 K, 120600 kPa | 1.644 mPa·s
273.15 K, 150300 kPa | 1.649 mPa·s
273.15 K, 180000 kPa | 1.659 mPa·s
273.15 K, 209600 kPa | 1.678 mPa·s
273.15 K, 240300 kPa | 1.704 mPa·s
273.15 K, 270400 kPa | 1.735 mPa·s
273.15 K, 300400 kPa | 1.771 mPa·s
273.15 K, 330300 kPa | 1.81 mPa·s
273.15 K, 359500 kPa | 1.852 mPa·s
273.15 K, 386700 kPa | 1.893 mPa·s
278.15 K, 100 kPa | 1.528 mPa·s
278.15 K, 600 kPa | 1.527 mPa·s
278.15 K, 30700 kPa | 1.481 mPa·s
278.15 K, 60700 kPa | 1.454 mPa·s
278.15 K, 90500 kPa | 1.44 mPa·s
278.15 K, 120300 kPa | 1.439 mPa·s
278.15 K, 150800 kPa | 1.444 mPa·s
278.15 K, 180700 kPa | 1.456 mPa·s
278.15 K, 210700 kPa | 1.476 mPa·s
278.15 K, 240400 kPa | 1.498 mPa·s
278.15 K, 270400 kPa | 1.522 mPa·s
278.15 K, 300600 kPa | 1.555 mPa·s
278.15 K, 330300 kPa | 1.591 mPa·s
278.15 K, 360000 kPa | 1.631 mPa·s
278.15 K, 389000 kPa | 1.672 mPa·s
283.15 K, 100 kPa | 1.313 mPa·s and 1.31 mPa·s
283.15 K, 500 kPa | 1.31 mPa·s
283.15 K, 30700 kPa | 1.28 mPa·s
283.15 K, 60700 kPa | 1.264 mPa·s
283.15 K, 90700 kPa | 1.257 mPa·s
283.15 K, 120800 kPa | 1.257 mPa·s
283.15 K, 150800 kPa | 1.263 mPa·s
283.15 K, 180800 kPa | 1.275 mPa·s
283.15 K, 210200 kPa | 1.293 mPa·s
283.15 K, 240600 kPa | 1.314 mPa·s
283.15 K, 270700 kPa | 1.337 mPa·s
283.15 K, 300200 kPa | 1.362 mPa·s
283.15 K, 330000 kPa | 1.39 mPa·s
283.15 K, 359200 kPa | 1.42 mPa·s
283.15 K, 385200 kPa | 1.45 mPa·s
298.15 K, 100 kPa | 0.892 mPa·s and 0.893 mPa·s
298.15 K, 31000 kPa | 0.888 mPa·s
298.15 K, 61000 kPa | 0.888 mPa·s
298.15 K, 90900 kPa | 0.891 mPa·s
298.15 K, 120700 kPa | 0.898 mPa·s
298.15 K, 150600 kPa | 0.907 mPa·s
298.15 K, 180600 kPa | 0.919 mPa·s
298.15 K, 210600 kPa | 0.933 mPa·s
298.15 K, 240600 kPa | 0.948 mPa·s
298.15 K, 270100 kPa | 0.965 mPa·s
298.15 K, 299700 kPa | 0.983 mPa·s
298.15 K, 329200 kPa | 1.002 mPa·s
298.15 K, 358500 kPa | 1.022 mPa·s
298.15 K, 384300 kPa | 1.042 mPa·s
